The source of these data is patent publication US6087376A (priority 1998, dated 2000).

Assay [1] relates to rat brain vesicles. As to conditions: cited from earlier work.
Assay [2] has as its system VMAT2 knockout mice. As to conditions: mouse, in vivo; cited from earlier work.
For assay [3], the target named is human VMAT2. As to conditions: read-out: Ki, inhibition of monoamine uptake; cited from earlier work.
Assay [4] concerns the target human VMAT2. Conditions: read-out: Ki, inhibition of [3H]DTBZ binding; cited from earlier work.
In assay [5] the test system is monoamine oxidase. Conditions: cited from earlier work.
Assay [6] concerns the target [3H]DTBZ binding site, rat striatal homogenates. As to conditions: read-out: Ki, inhibition of [3H]DTBZ binding; cited from earlier work.
The target of assay [7] is T1, vesicular monoamine transporter-2 (VMAT2), DTBZ/TBZ site, rat striatal vesicle membranes (Rattus norvegicus, UniProt Q01827).
T1 construct: from tissue; host or cells: rat striatum, synaptic vesicles
The assay is described as follows: [3H]DTBZ binding to rat striatal vesicles. Conditions: 2 nM [3H]DTBZ.

The test system of assay [8] is rat striatal synaptic vesicles. The assay is described as follows: [3H]DA release from striatal synaptic vesicles preloaded with [3H]DA. It counts as biochemical. On the procedure: (§1) The homogenate was then centrifuged at 2,000×g for 10 min at 4° C. and the resulting supernatant was centrifuged at 10,000×g for 30 min at 4° C. Synaptosomes (buffy coat) were separated from the underlying mitochondria and cellular debris (reddish pellet) by gentle swirling in 2 mL of 0.32 M sucrose. The enriched synaptosome fraction (2.0 mL) was subjected to osmotic shock by addition of 7 mL distilled H2 0 and was homogenized with 5 up and down strokes of the TEFLON pestle. The osmolarity was restored by the addition of 900 μL of 0.25 M HEPES and 900 μL of 1.0 M neutral potassium-tatrate buffer (pH 7.5) followed by a 20 min centrifugation (20,000×g at 4° C.). The supernatant was then centrifuged for 60 min (55,000×g at 4° C.).
The final vesicle pellet from a pool of striata from three rats was resuspended in 3 mL of release assay buffer (in mM: 25 HEPES, 100 L-(+)-tartaric acid dipotassium salt, 0.05 EGTA, 0.10 EDTA, 2 Mg^2+ -ATP, and 1.7 ascorbic acid, pH 7.4) and then incubated with [^3 H]DA (0.3 μM) for 8 min at 37° C. […] [^3 H]DA efflux represents the net result of events, i.e., release and reuptake. […] The reaction was terminated by addition of 2.5 mL of ice-cold assay buffer containing 2 mM MgSO4. Samples were rapidly filtered through Whatman GF/F filters using the Brandel cell harvester.
The amount of drug-induced [^3 H]DA release from synaptic vesicles was calculated by subtracting the amount of tritium remaining in the drug-exposed samples from that remaining in the control samples (in the absence of drug). The amount of drug-induced [^3 H]DA release was then divided by the amount of tritium remaining in the control samples and was expressed as a percentage of control.
Concentration-response and kinetic data were analyzed by repeated-measures one-way ANOVA and between-group one-way ANOVA, respectively. When appropriate, Fisher's least significant difference post hoc test was used to determine significant differences between treatment means. IC50 and EC50 values were obtained by an iterative nonlinear least-squarescurve-fitting program (GraphPAD-PRIZM: GraphPAD, San Diego, Calif., U.S.A.) for one-site competition and sigmoidal concentration response, respectively. The t1/2 was obtained by an iterative nonlinear least-squares curve-fitting program for one-phase decay. KD and Bmax values were obtained by Scatchard analysis using an iterative linear least-squares curve-fitting program.

The subject of assay [9] is nicotine (10 μM)-evoked [3H]overflow from rat striatal slices. Nature of the assay: Mecamylamine antagonism of nicotine-evoked [3H]overflow from rat striatal slices. It counts as cell-based. On the procedure:
(§2) Rat striata were rapidly dissected on ice and were sliced using a McIlwain tissue chopper. […] Slices were rinsed with 15 mL fresh buffer and then incubated in fresh buffer containing 0.1 μM [^3 H]DA (6-8 slices/3 mL) for an additional 30 min. Subsequently, slices were rinsed with 15 mL fresh buffer and transferred to a glass superfusion chamber. […] After 60 min of superfusion when basal outflow was stabilized, two 5-min samples (5 mL) were collected to determine basal [^3 H]outflow.
To determine the ability of mecamylamine to antagonize nicotine-evoked [^3 H]overflow, a repeated-measure design was utilized also. Individual slices were superfused with a single concentration (0.01-100 μM) of mecamylamine for 60 min, followed by 60 min of superfusion with nicotine (10 μM) in the presence of the various mecamylamine concentrations. One slice in each experiment was superfused in the absence of mecamylamine to determine the effect of nicotine alone. A control slice was superfused with buffer alone.
(§3) The pH and volume of the solubilized tissue samples were adjusted to those of the superfusate samples.
(§4) Fractional release for each superfusate sample was calculated by dividing the tritium collected in each sample by the total tritium present in the tissue at the time of sample collection. Fractional release was expressed as a percentage of total tritium in the tissue at the time of sample collection. Basal outflow was calculated from the average of the tritium collected in the two 5-min samples just before the addition of drug.
(§5) Inhibition of synaptosomal and vesicular [^3 H]DA uptake were analyzed by repeated-measures, one-way ANOVA, and by an iterative nonlinear least-squares curve-fitting program (GraphPAD-PRIZM; GraphPAD, San Diego, Calif.) to obtain IC50 values. Dunnett's post hoc test was used to compare treatment means to a single control mean. Also, Duncan's New Multiple Range Test or Fisher's LSD post hoc analysis were used to compare pairs of treatment means. Duncan's New Multiple Range Test was used when significant one-way ANOVA's were obtained or when significant main effects were obtained in the two-way ANOVA's. Fisher's LSD post hoc analysis is a more conservative test, which takes into account error which cumulates during multiple comparisons of pairs of means. Fisher's LSD analysis was used when the interaction term was significant in the two-way ANOVAs, specifically in the post hoc analysis of drug×time interactions. Statistical significance was reached when P<0.05 (two-tailed, unless otherwise indicated).

Assay [10] has as its target T2, plasma membrane DA transporter (rat striatal synaptosomes) (Rattus norvegicus, UniProt P23977).
T2 construct: from tissue; host or cells: rat striatum, synaptosomes
The assay is described as follows: [3H]DA uptake assay, striatal synaptosomal preparation. Conditions: nicotine 0.001 nM-100 μM. It counts as biochemical. On the procedure:
The homogenate was centrifuged at 2,000×g for 10 min at 4° C. […] The final protein concentration was 400 μg/mL. The assay was performed in duplicate in a total volume of 500 μL. […] The incubation continued for 10 min at 34° C. The reaction was terminated by the addition of 3 mL cold assay buffer (without 1 mM catechol). Samples were rapidly filtered through a Whatman GF/B filter using a Brandel cell harvester (model MP-43 RS, Biochemical Research and Development Laboratories, Inc., Gaithersburg, Md.) and the filter was subsequently washed 3 times with 4 mL of cold assay buffer containing 1 mM catechol. Filters were previously soaked for 2 hrs in the cold assay buffer containing 1 mM catechol. […] Filters were placed into scintillation vials, 10 mL of scintillation cocktail was added and radioactivity was determined by scintillation spectrometry.
(§6) Inhibition of synaptosomal and vesicular [^3 H]DA uptake were analyzed by repeated-measures, one-way ANOVA, and by an iterative nonlinear least-squares curve-fitting program (GraphPAD-PRIZM; GraphPAD, San Diego, Calif.) to obtain IC50 values. Dunnett's post hoc test was used to compare treatment means to a single control mean. Also, Duncan's New Multiple Range Test or Fisher's LSD post hoc analysis were used to compare pairs of treatment means. […]

Assay [11] deals with self-administration by rats. Conditions: rat, in vivo; cited from earlier work.
Assay [12] concerns nicotinic receptors in rat brain. As to conditions: in vivo; cited from earlier work.
The subject of assay [13] is nicotinic receptors in mouse brain. Conditions: in vivo; cited from earlier work.
The test system of assay [14] is locomotor activity in rats. As to conditions: rat, in vivo; cited from earlier work.
For assay [15], the target named is central nicotinic receptors. As to conditions: read-out: Kd, binding to nicotinic receptors; cited from earlier work.
For assay [16], the target named is T3, synaptic vesicular monoamine transporter (VMAT2), rat striatal synaptic vesicles (Rattus norvegicus, UniProt Q01827).
T3 construct: from tissue; host or cells: rat striatum, synaptic vesicles
Nature of the assay: [3H]DA uptake assay, striatal synaptic vesicles. The format is biochemical. As to conditions: nicotine. On the procedure: as §1
Samples were rapidly filtered through Whatman GF/F filters using the Brandel cell harvester.
as §6

Assay [17] has as its system rat striatal slices preloaded with [3H]DA. The assay is described as follows: [3H]DA release assay: drug-evoked [3H]overflow / fractional release from rat striatal slices preloaded with [3H]DA. The format is cell-based. On the procedure:
as §2
The concentration-response for each drug was determined using a repeated-measures design.
as §3, §4, §5

For assay [18], the system named is conditioned place preference in rats. As to conditions: rat, in vivo; cited from earlier work.
The subject of assay [19] is rat striatal slices preloaded with [3H]DA. Conditions: cited from earlier work.
The test system of assay [20] is reserpine site on VMAT2. Conditions: read-out: IC50, inhibition of binding to the reserpine site; cited from earlier work.

Values joined by “and” are separate entries in the source; they are usually repeats but may differ in a detail not shown here. Equal entries are not always repeated. “Also recorded” adds a separate entry of the source. Where two headings read alike, the source gives them in different places. Bounds are passed on as bounds.

T2 sequence (P23977 whole entry): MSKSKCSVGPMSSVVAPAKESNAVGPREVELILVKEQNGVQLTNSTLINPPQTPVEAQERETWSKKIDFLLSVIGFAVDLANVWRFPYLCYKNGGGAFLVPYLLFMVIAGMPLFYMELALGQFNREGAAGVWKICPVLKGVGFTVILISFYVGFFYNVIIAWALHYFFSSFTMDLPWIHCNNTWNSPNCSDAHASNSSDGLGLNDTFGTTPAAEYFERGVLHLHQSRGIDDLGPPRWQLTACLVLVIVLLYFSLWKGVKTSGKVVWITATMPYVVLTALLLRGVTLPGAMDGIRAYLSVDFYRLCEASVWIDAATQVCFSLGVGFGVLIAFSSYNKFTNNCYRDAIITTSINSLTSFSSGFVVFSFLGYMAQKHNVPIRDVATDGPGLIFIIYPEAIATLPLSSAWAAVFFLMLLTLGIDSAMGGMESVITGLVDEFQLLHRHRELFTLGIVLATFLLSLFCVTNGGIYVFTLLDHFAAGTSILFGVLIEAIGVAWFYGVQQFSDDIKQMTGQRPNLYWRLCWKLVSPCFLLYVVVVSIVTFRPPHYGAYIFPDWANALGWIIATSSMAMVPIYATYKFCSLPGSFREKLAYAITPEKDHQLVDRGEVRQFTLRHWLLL
T3 sequence (Q01827 whole entry): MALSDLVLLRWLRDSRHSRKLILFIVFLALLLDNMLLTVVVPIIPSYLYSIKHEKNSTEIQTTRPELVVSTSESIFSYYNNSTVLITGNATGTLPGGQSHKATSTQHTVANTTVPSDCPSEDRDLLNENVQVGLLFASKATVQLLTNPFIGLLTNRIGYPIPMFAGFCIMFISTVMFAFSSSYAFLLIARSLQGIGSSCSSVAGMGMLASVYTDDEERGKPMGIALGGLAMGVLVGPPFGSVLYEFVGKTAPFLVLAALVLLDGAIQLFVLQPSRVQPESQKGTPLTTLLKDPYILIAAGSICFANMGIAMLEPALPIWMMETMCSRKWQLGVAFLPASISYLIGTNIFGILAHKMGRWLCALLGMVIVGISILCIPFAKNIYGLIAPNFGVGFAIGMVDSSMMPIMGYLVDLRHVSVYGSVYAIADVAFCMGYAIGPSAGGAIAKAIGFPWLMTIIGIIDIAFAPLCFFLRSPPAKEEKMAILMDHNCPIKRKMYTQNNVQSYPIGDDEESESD
T1 sequence (Q01827 whole entry): as above

For `COc1cc2c(cc1OC)C1CC(=O)C(CC(C)C)CN1CC2` (stereo not shown) [Tetrabenazine], the “effect on spontaneous efflux of [3H]DA” value in [1] is on record as “does not alter spontaneous efflux”.
As to `CC(N)Cc1ccccc1` (stereo not shown) [amphetamine], the “conditioned place preference in VMAT2 knockout vs wild-type mice” value in assay [2] is “diminished amphetamine-induced conditioned place preference”.
Regarding `C[C@H](N)Cc1ccccc1` [d-Amphetamine], the Ki was around 2 µM in assay [3], 300 µM in assay [4] and above 20 µM in assay [6]. In addition, the “inhibition of monoamine oxidase” value in assay [5] is recorded as “inhibits monoamine oxidase”. Also, in [7], the “lowest concentration to significantly inhibit [3H]DTBZ binding” value was 10 µM. Further, the “potency in releasing DA from synaptic vesicles vs lobeline” value in [8] was 10 fold. Further, in assay [8] (8 min, 37° C.), the “lowest concentration to evoke [3H]DA release from vesicles” value was found to be 1 µM. Further, in assay [8] (8 min, 37° C., read-out: EC50, evoked [3H]DA release from synaptic vesicles), the EC50 worked out at 2.22 ± 0.13 µM.
As to `CNC1(C)C2CCC(C2)C1(C)C` (stereo not shown) [Mecamylamine], the inhibition at 0.01 µM in [9] (Rattus norvegicus, mecamylamine 0.01 μM, read-out: inhibition of nicotine's effect (fractional release)) worked out at 36%. In addition, the minimal effective concentration in assay [9] (Rattus norvegicus, read-out: lowest concentration to produce significant inhibition of nicotine's effect (fractional release, collapsed across time)) came to 0.01 µM. Moreover, the “Total [3H]overflow evoked by nicotine” value came out at 3.57 ± 1.52 in assay [9] (mecamylamine 0.01 μM); 2.40 ± 0.87 in assay [9] (mecamylamine 0.1 μM, P<0.05 one-tailed); 1.59 ± 0.64 in assay [9] (mecamylamine 1 μM, P<0.05 two-tailed); 1.02 ± 0.43 in assay [9] (mecamylamine 10 μM, P<0.05 two-tailed); 0.54 ± 0.32 in [9] (mecamylamine 100 μM, P<0.05 two-tailed).
Take `CN1CCC[C@H]1c1cccnc1` [Nicotine]: the “inhibition of [3H]DA uptake into striatal synaptosomes” value in [10] was “did not inhibit; also recorded: no inhibition of synaptosomal [^3 H]DA uptake was observed; also recorded: no effect was observed”. Also, the self-administration entry in assay [11] is listed as “avidly self-administered by rats”. Further, the “number of nicotinic receptors after chronic treatment” value in assay [12] and in assay [13] was “increase in the number of nicotinic receptors” each time. The locomotor activity result in assay [14] is listed as “increase locomotor activity”. Besides, the Kd in assay [15] is 0.001 to 0.007 µM. In assay [16], the “concentration giving significant inhibition of vesicular [3H]DA uptake” value was 1 mM and ~ 1 mM. Also, the minimal effective concentration in assay [17] (Rattus norvegicus, read-out: lowest concentration which evoked a significant increase in [3H]overflow) is 0.05 µM. In addition, in assay [17] (nicotine), the “time to peak fractional release after addition of drug” value fell in the range of 10 to 15 min. Moreover, in assay [17] (nicotine 100 μM), the peak fractional release is recorded as 2 % of total tritium in the slice. Besides, the conditioned place preference result in assay [18] was “produce conditioned place preference”. For the same molecule, the “mechanism of nicotine-evoked DA release” value in [19] was “calcium-dependent, mecamylamine-sensitive and mediated by nicotinic receptors”. For the same molecule, the “total [3H]overflow” value in [9] (mecamylamine 0 μM (control)) came to 5.60 ± 1.20.
For the molecule `CN[C@@H](C)Cc1ccccc1` [Methamphetamine], the IC50 in assay [20] was 0.4 µM.

By Ki is commonly meant a measure of affinity in units of concentration, obtained from inhibition or displacement. As a reminder, the EC50 is the midpoint of the concentration-response curve. Broadly, the inhibition is the drop in the measured response relative to a control, in per cent. As a reminder, the Kd is a measure of binding affinity in units of concentration. The term IC50 denotes the concentration that inhibits the measured activity by half.
